Laboratory results as given in patent US20050112573A1, “Method of detecting toxic substance” (priority 2001, published 2005).

System: yeast genes (level of expressed mRNA)
Assay: DNA chip analysis of expressed mRNA of yeast genes after 2 h culture with a toxic chemical substance
Assay type: cell-based, Saccharomyces cerevisiae S288C
Settings: for The level of expressed mRNA in the presence of chemical substance/ in its absence, gene YDL078C: yeast gene YDL078C; for The level of expressed mRNA in the presence of chemical substance/ (ratio to absence of chemical substance): stress protein genes, DNA chip
Experimental: Yeast (Saccharomyces cerevtisiae S288C (α SUC2mal mel gap2 CUP1)) were cultured at 25° C. on YPD medium (yeast extract 1%, polypepton 2%, glucose 2%). One of toxic chemical substances was added to the cell at logarithmic growth phase, and the cell was further cultured for two hours. Cell was cultured without any chemical substance in the same condition, and was used as control. Concentrations of the chemical substances were defined to inhibit the growth of the yeast but not lead to death.
After the completion of cultivation, the culture was centrifuged to collect the cells. To the cells, sodium acetate buffer (50 mM sodium acetate, 10 mM EDTA, 1% SDS) was added, and the mixture was shaken at 65° C. for five minutes, followed by returning to room temperature, and obtaining the supernatant, which procedure was repeated two times. To the supernatant, ½ amount of a solution of phenol/chloroform was added, and the mixture was centrifuged to give a supernatant, which was added with an equal amount of chloroform, and the mixture was centrifuged to give a supernatant. To the supernatant, an equal amount of isopropanol containing 0.3 M sodium acetate was added, and the mixture was allowed to stand at room temperature for 30 minutes, after which the mixture was centrifuged to give a sediment of the whole RNAs. Seventy % ethanol was added to the sediment, and the mixture was again centrifuged to give a sediment, which was then dried and dissolved in water. mRNA was isolated from the whole RNAs as followings. In view of the fact that a poly A chain is attached to the 3′ terminus of mRNA, a polynucleotide having a poly T structure which was immobilized on the surface of latex beads was used to trap the mRNA, and then the mRNA was washed and eluted with spine column (Oligotex-dT30<Super>mRNA Purification Kit, Takara). Reverse transcription of the mRNA was conducted with a reverse transcriptase (Super Script II Reverse Transcriptase; catalogue No. 18064-014, GibcoBRL) using fluorescence-labeled nucleotides to give cDNAs that were introduced with Cy3-dUTP or Cy5-dUTP during the reverse transcription.
The labeled cDNAs were dissolved in TE buffer (10 mM Tris-HCl/1 mM EDTA, pH8.0), and the solution was dropped on the DNA chip containing the whole genes of yeast (DNA Chip Research Inc. Japan) so that the cDNAs were hybridized on the DNA chip at 65° C. for over 12 hours. The fluoresces intensity of the DNA chip was read with a scanner, and the ratio relative to the fluorescence intensity resulting from the absence of chemical substance was estimated as the following, which is shown in Tables 1 to 9: [formula]
In the Tables, “Intensity” indicated in the rightmost column is a value of the level of expressed mRNA of each gene in control cells as divided by the average level of the expressions of the whole genes.

SMILES: S=C([S-])NCCNC(=S)[S-].[Zn+2] [(11), zinc N,N′-ethylenebis(dithiocarbamate)]
- The level of expressed mRNA in the presence of chemical substance/ in its absence, gene YDL078C (energy system protein genes, 2 h culture with the chemical, ratio to control without chemical): 1.7
- The level of expressed mRNA in the presence of chemical substance/ in its absence, gene YDL078C (ratio of DNA chip fluorescence intensity to that without chemical substance): 1.7
- The level of expressed mRNA in the presence of chemical substance/ (in its absence), gene YDL215C (yeast gene YDL215C, ratio of DNA chip fluorescence intensity to that without chemical substance): 0.8
- The level of expressed mRNA in the presence of chemical substance/The level of expressed mRNA in the absence of chemical substance (yeast gene YDL238C): 1.1
- The level of expressed mRNA in the presence of chemical substance/The level of expressed mRNA in the absence of chemical substance (yeast gene YDR055W): 2.2
- The level of expressed mRNA in the presence of chemical substance/ (in its absence), gene YDR073W (yeast gene YDR073W, ratio of DNA chip fluorescence intensity to that without chemical substance): 1.0
- The level of expressed mRNA in the presence of chemical substance/ in its absence, gene YDR079W (yeast gene YDR079W, energy system protein genes, 2 h culture with the chemical, ratio to control without chemical): 1.3
- The level of expressed mRNA in the presence of chemical substance/ (ratio to absence), gene YDR079W (yeast gene YDR079W, mitochondria-located protein genes, 2 h culture with chemical): 1.3
- The level of expressed mRNA in the presence of chemical substance/The level of expressed mRNA in the absence of chemical substance (yeast gene YDR084C): 0.7
- The level of expressed mRNA in the presence of chemical substance/The level of expressed mRNA in the absence of chemical substance (yeast gene YDR085C): 1.7
- The level of expressed mRNA in the presence of chemical substance/The level of expressed mRNA in the absence of chemical substance (yeast gene YDR104C): 1.0
- The level of expressed mRNA in the presence of chemical substance/The level of expressed mRNA in the absence of chemical substance (yeast gene YDR115W): 1.2
- The level of expressed mRNA in the presence of chemical substance/The level of expressed mRNA in the absence of chemical substance (yeast gene YDR259C): 1.2
- The level of expressed mRNA in the presence of chemical substance/ (in its absence), gene YDR297W (yeast gene YDR297W, ratio of DNA chip fluorescence intensity to that without chemical substance): 1.4
- The level of expressed mRNA in the presence of chemical substance/The level of expressed mRNA in the absence of chemical substance (yeast gene YDR315C): 1.1
- The level of expressed mRNA in the presence of chemical substance/The level of expressed mRNA in the absence of chemical substance (yeast gene YDR358W): 1.0
- The level of expressed mRNA in the presence of chemical substance/ (ratio to absence), gene YDR377W (yeast gene YDR377W, mitochondria-located protein genes, 2 h culture with chemical): 1.4
- The level of expressed mRNA in the presence of chemical substance/ (in its absence), gene YDR387C (yeast gene YDR387C, ratio of DNA chip fluorescence intensity to that without chemical substance): 2.0
- The level of expressed mRNA in the presence of chemical substance/The level of expressed mRNA in the absence of chemical substance (yeast gene YDR388W): 1.6
- The level of expressed mRNA in the presence of chemical substance/The level of expressed mRNA in the absence of chemical substance (yeast gene YDR432W): 0.6
- The level of expressed mRNA in the presence of chemical substance/The level of expressed mRNA in the absence of chemical substance (yeast gene YDR481C): 1.2
- The level of expressed mRNA in the presence of chemical substance/The level of expressed mRNA in the absence of chemical substance (yeast gene YDR510W): 1.6
- The level of expressed mRNA in the presence of chemical substance/ (ratio to absence of chemical substance) (yeast gene YEL039C): 1.7
- The level of expressed mRNA in the presence of chemical substance/The level of expressed mRNA in the absence of chemical substance (yeast gene YEL042W): 1.6
- The level of expressed mRNA in the presence of chemical substance/The level of expressed mRNA in the absence of chemical substance (yeast gene YEL066W): 1.9
- The level of expressed mRNA in the presence of chemical substance/ (in its absence), gene YER015W (yeast gene YER015W, ratio of DNA chip fluorescence intensity to that without chemical substance): 1.0
- The level of expressed mRNA in the presence of chemical substance/The level of expressed mRNA in the absence of chemical substance (yeast gene YER039C): 1.2
- The level of expressed mRNA in the presence of chemical substance/ (ratio to absence of chemical substance) (yeast gene YER057C): 1.8
- The level of expressed mRNA in the presence of chemical substance/The level of expressed mRNA in the absence of chemical substance (yeast gene YER107C): 0.7
- The level of expressed mRNA in the presence of chemical substance/The level of expressed mRNA in the absence of chemical substance (yeast gene YER130C): 0.9
- The level of expressed mRNA in the presence of chemical substance/The level of expressed mRNA in the absence of chemical substance (yeast gene YFL028C): 1.3
- The level of expressed mRNA in the presence of chemical substance/The level of expressed mRNA in the absence of chemical substance (yeast gene YFL043C): 1.1
- The level of expressed mRNA in the presence of chemical substance/ (in its absence), gene YGL035C (yeast gene YGL035C, ratio of DNA chip fluorescence intensity to that without chemical substance): 1.3
- The level of expressed mRNA in the presence of chemical substance/ (in its absence), gene YGL115W (yeast gene YGL115W, ratio of DNA chip fluorescence intensity to that without chemical substance): 1.0
- The level of expressed mRNA in the presence of chemical substance/ (ratio to absence of chemical substance) (yeast gene YGL115W): 1.0
- The level of expressed mRNA in the presence of chemical substance/The level of expressed mRNA in the absence of chemical substance (yeast gene YGL158W): 0.2
- The level of expressed mRNA in the presence of chemical substance/ (ratio to absence), gene YGL187C (yeast gene YGL187C, mitochondria-located protein genes, 2 h culture with chemical): 0.7
- The level of expressed mRNA in the presence of chemical substance/ (in its absence), gene YGL205W (yeast gene YGL205W, ratio of DNA chip fluorescence intensity to that without chemical substance): 0.4
- The level of expressed mRNA in the presence of chemical substance/The level of expressed mRNA in the absence of chemical substance (yeast gene YGL229C): 1.1
- The level of expressed mRNA in the presence of chemical substance/ in its absence, gene YGR062C (yeast gene YGR062C, energy system protein genes, 2 h culture with the chemical, ratio to control without chemical): 1.6
- The level of expressed mRNA in the presence of chemical substance/ (ratio to absence), gene YGR062C (yeast gene YGR062C, mitochondria-located protein genes, 2 h culture with chemical): 1.6
- The level of expressed mRNA in the presence of chemical substance/ (in its absence), gene YGR096W (yeast gene YGR096W, ratio of DNA chip fluorescence intensity to that without chemical substance): 0.8
- The level of expressed mRNA in the presence of chemical substance/The level of expressed mRNA in the absence of chemical substance (yeast gene YGR136W): 1.3
- The level of expressed mRNA in the presence of chemical substance/The level of expressed mRNA in the absence of chemical substance (yeast gene YGR189C): 1.5
- The level of expressed mRNA in the presence of chemical substance/The level of expressed mRNA in the absence of chemical substance (yeast gene YGR213C): 1.6
- The level of expressed mRNA in the presence of chemical substance/The level of expressed mRNA in the absence of chemical substance (yeast gene YGR257C): 1.2
- The level of expressed mRNA in the presence of chemical substance/ (in its absence), gene YGR287C (yeast gene YGR287C, ratio of DNA chip fluorescence intensity to that without chemical substance): 1.5
- The level of expressed mRNA in the presence of chemical substance/ (in its absence), gene YGR288W (yeast gene YGR288W, ratio of DNA chip fluorescence intensity to that without chemical substance): 1.3
- The level of expressed mRNA in the presence of chemical substance/ (ratio to absence of chemical substance) (yeast gene YHL028W): 0.7
- The level of expressed mRNA in the presence of chemical substance/ (ratio to absence of chemical substance) (yeast gene YHL046C): 0.4
- The level of expressed mRNA in the presence of chemical substance/The level of expressed mRNA in the absence of chemical substance (yeast gene YHR004C): 0.8
- The level of expressed mRNA in the presence of chemical substance/The level of expressed mRNA in the absence of chemical substance (yeast gene YHR071W): 1.8
- The level of expressed mRNA in the presence of chemical substance/The level of expressed mRNA in the absence of chemical substance (yeast gene YHR139C): 3.5
- The level of expressed mRNA in the presence of chemical substance/The level of expressed mRNA in the absence of chemical substance (yeast gene YHR142W): 1.1
- The level of expressed mRNA in the presence of chemical substance/ (in its absence), gene YHR210C (yeast gene YHR210C, ratio of DNA chip fluorescence intensity to that without chemical substance): 1.5
- The level of expressed mRNA in the presence of chemical substance/ (in its absence), gene YIL006W (yeast gene YIL006W, ratio of DNA chip fluorescence intensity to that without chemical substance): 1.0
- The level of expressed mRNA in the presence of chemical substance/ (ratio to absence of chemical substance) (yeast gene YIL011W): 2.5
